Laboratory results taken from patent US20260258084A1, “New Peptides as Selective IL-23 Receptor Antagonists” (Sanofi, priority 2022, published 2026).
In brackets after ≈: the same amount, converted by molar mass. Read-outs that look alike come from different tables or passages of the source. Starred links: 1 amine or outer side, 2 acyl side, 3 side chain; linkers in the order of their positions; H or OH if unused. Positions of bridges follow the written chain, without caps; N, C: chain ends. Non-standard residues stand in square brackets, D forms with d. Residues, ends and D or L forms follow the SMILES beside them. *: point of attachment. X3 = CN(CCCCC(=O)N[C@@H](CS[*:2])C(=O)[*:1])[*:3]; Trp(7-Me) = Cc1cccc2c(C[C@H](N)C(=O)O)c[nH]c12; X1 = O=C(CCCCN[*:3])N[C@@H](CS[*:2])C(=O)[*:1]; αMeLys(Me2) = CN(C)CCCC[C@](C)(N)C(=O)O; 2Nal = N[C@@H](Cc1ccc2ccccc2c1)C(=O)O; d2Nal = N[C@H](Cc1ccc2ccccc2c1)C(=O)O; 3Pal = N[C@@H](Cc1cccnc1)C(=O)O; αMeP = C[C@@]1(C(=O)O)CCCN1; Thp = NC1(C(=O)O)CCOCC1; Me2NCH2CH2 = CN(C)CC*; Aib = CC(C)(N)C(=O)O; Ava = NCCCCC(=O)O; Sar = CNCC(=O)O

How the values were obtained:
[1] = test system: IL-23 induced STAT3 signaling in HEK-Blue™ IL-23 cells; experiment: IL-23 induced STAT3 signaling in HEK-Blue IL-23 cells (SEAP reporter); type: cell-based; conditions: human IL23 0.25 ng/ml, read-out: pSTAT3
Procedure, shortened: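 Secreted SEAP, read at OD 620-655 nm after 45 min QUANTI-Blue development, reports STAT3 activation. Beforehand, cells were exposed to peptide dilutions for 60 min at 37 °C and then to 0.25 ng/ml final human IL-23 overnight, at 10,000 cells/well.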

Pancreatin = experiment: Protease stability in simulated intestinal fluid (Pancreatin-SIF, FaSSIF); type: in vitro ADME; conditions: 1 μM peptide, 37° C.; for remaining at 1 h, 1 µM: 60 min, read-out: FaSSIF 60 (min), remaining percent of peptide; for remaining at 2 h, 1 µM: 120 min, read-out: FaSSIF 120 (min), remaining percent of peptide; for remaining at 4 h, 1 µM: 240 min, read-out: FaSSIF 240 (min), remaining percent of peptide
Procedure, shortened: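 LC-MS/MS peak areas at 0, 60, 120 and 240 min, normalised to time 0 as 100%, give percent remaining. Reactions used 1 μM final peptide at 37° C in pancreatin-SIF (1 mg pancreatin in 10 mL SIF concentrate) and were stopped with ethanol containing 0.1% HCOOH.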

[2] = Solubility testing of peptides at different pH; type: physicochemical; conditions: target concentration 1 mg/ml, 2 hours agitation
Procedure, shortened: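 Four buffers were used: 50 mM HCl pH 1.2 and 50 mM phosphate at pH 6.5, 7.4 and 9.0, each receiving dried-down compound at a 1 mg/mL target. After 2 h gentle shaking and 0.45 μm filtration, UV peak areas were compared with a DMSO standard curve of known concentration, allowing for extinction coefficients.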

Pepsin = test system: T1, Pepsin; experiment: Protease stability in simulated gastric fluid (Pepsin-SGF, FaSSGF); type: in vitro ADME; conditions: simulated gastric fluid with pepsin (Pepsin-SGF), 60 min, 1 μM peptide, 37° C., read-out: FaSSGF 60 (min), remaining percent of peptide
T1 construct: purchased Merck Millipore
Procedure, shortened: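 LCMS/MS peak areas, normalised to the time-0 sample as 100%, give percent remaining. Conditions: 37° C incubation of 1 μM final peptide in simulated gastric fluid with pepsin; ethanol/0.1% HCOOH quench at 0, 60, 120, 240 min.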

[3] = biological target: T2, human interleukin-23 receptor (recombinant human IL-23R-Fc chimera) (Homo sapiens, UniProt Q5VWK5); experiment: Human ELISA IL23/IL23R (assay for specific human IL23R antagonists); type: binding; conditions: Table 10; read-out: Human ELISA IL23/IL23R IC50
T2 construct: Fc (IgG Fc fusion)
Procedure, shortened: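 Competition format: peptide dilutions compete for IL23R-Fc chimera (0.1 μg/ml final, 60 min, room temperature) binding to immobilized human IL23 coated at […] overnight at 4 °C. Read-out is fluorogenic HRP signal from goat anti-hu-IgG1 detecting captured receptor.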

[4] = 50 mM HCl buffer, 50 mM HCl pH 1.2, read-out: Solubility Buffer pH 1.2
[5] = 50 mM phosphate buffer pH 6.5, read-out: Solubility Buffer pH 6.5
[6] = 50 mM phosphate buffer pH 7.4, read-out: Solubility Buffer pH 7.4
[7] = 50 mM phosphate buffer pH 9.0, read-out: Solubility Buffer pH 9.0

remaining at 1 h, 1 µM (Pancreatin)	remaining at 2 h, 1 µM (Pancreatin)	remaining at 4 h, 1 µM (Pancreatin)	solubility at 2 h [2, 4]	solubility at 2 h [2, 5]	solubility at 2 h [2, 6]	remaining at 1 h, 1 µM (Pepsin)	IC50 [3]	solubility at 2 h [2, 7]	Compound	IC50 [1]
89%	80%	82%	≥ 1110 µg/mL	≥ 1040 µg/mL	≥ 960 µg/mL	91%	0.4 nM		CC(=O)NCCCC[C@@H]1NC(=O)[C@H](Cc2c[nH]c3c(C)cccc23)NC(=O)[C@H]([C@@H](C)O)NC(=O)[C@H](CC(N)=O)NC(=O)[C@@H]2CSSC[C@H](NC1=O)C(=O)N[C@@H](Cc1ccc(OCCN(C)C)cc1)C(=O)N[C@@H](Cc1ccc3ccccc3c1)C(=O)NC1(CCOCC1)C(=O)N[C@H](C(=O)N[C@@H](CC(N)=O)C(=O)N[C@@H](Cc1c[nH]cn1)C(=O)N1CCC[C@@]1(C)C(N)=O)CCC(=O)NCCCCC(=O)N2 [compound 55] ([Ava]CNT[Trp(7-Me)]K(Ac)CY(Me2NCH2CH2)[2Nal][Thp]ENH[αMeP]-NH2; disulfide 2-7; lactam N-11)	0.95 nM
90%	76%	77%	≥ 1090 µg/mL	≥ 920 µg/mL	≥ 1030 µg/mL	86%	0.57 nM		CC(=O)NCCCC[C@@H]1NC(=O)[C@H](Cc2c[nH]c3c(C)cccc23)NC(=O)[C@H]([C@@H](C)O)NC(=O)[C@H](CC(N)=O)NC(=O)[C@@H]2CSSC[C@H](NC1=O)C(=O)N[C@@H](Cc1ccc(OCCN(C)C)cc1)C(=O)N[C@@H](Cc1ccc3ccccc3c1)C(=O)NC1(CCOCC1)C(=O)N[C@H](C(=O)N[C@@H](CO)C(=O)N[C@@H](Cc1cccnc1)C(=O)N(C)CC(N)=O)CCC(=O)NCCCCC(=O)N2 [compound 56] ([Ava]CNT[Trp(7-Me)]K(Ac)CY(Me2NCH2CH2)[2Nal][Thp]ES[3Pal][Sar]-NH2; disulfide 2-7; lactam N-11)	0.16 nM
98%	97%	97%	≥ 1090 µg/mL	≥ 1030 µg/mL	≥ 1090 µg/mL	77%	0.24 nM		CC(=O)NCCCC[C@@H]1NC(=O)[C@H](Cc2c[nH]c3ccccc23)NC(=O)[C@@H](NC(C)=O)CCCCNC(=O)[C@@H]2CSSC[C@H](NC1=O)C(=O)N[C@@H](Cc1ccc(OCCN(C)C)cc1)C(=O)N[C@H](Cc1ccc3ccccc3c1)C(=O)N[C@@](C)(CCCCN(C)C)C(=O)N[C@H](C(=O)N[C@@H](CC(N)=O)C(=O)N[C@@H](Cc1cccnc1)C(=O)N(C)CC(N)=O)CCC(=O)NCCCCC(=O)N2 [compound 59] (Ac-KWK(Ac)CY(Me2NCH2CH2)[d2Nal][αMeLys(Me2)]EN[3Pal][Sar]-NH2; linker 1-4-8 via X1)	0.07 nM
99%	91%	91%	≥ 1020 µg/mL	≥ 1000 µg/mL	≥ 930 µg/mL	68%	0.21 nM		CC(=O)NCCCC[C@@H]1NC(=O)[C@H](Cc2c[nH]c3c(C)cccc23)NC(=O)[C@@H](NC(C)=O)CCCCNC(=O)[C@@H]2CSSC[C@H](NC1=O)C(=O)N[C@@H](Cc1ccc(OCCN(C)C)cc1)C(=O)N[C@@H](Cc1ccc3ccccc3c1)C(=O)NC(C)(C)C(=O)N[C@H](C(=O)N[C@@H](CC(N)=O)C(=O)N[C@@H](Cc1c[nH]cn1)C(N)=O)CCC(=O)N(C)CCCCC(=O)N2 [compound 60] (Ac-K[Trp(7-Me)]K(Ac)CY(Me2NCH2CH2)[2Nal][Aib]ENH-NH2; linker 1-4-8 via X3)	0.16 nM

The remaining lines, values behind:

Compound	remaining at 1 h, 1 µM (Pancreatin)	remaining at 2 h, 1 µM (Pancreatin)	remaining at 4 h, 1 µM (Pancreatin)	solubility at 2 h [2, 4]	solubility at 2 h [2, 5]	solubility at 2 h [2, 6]	remaining at 1 h, 1 µM (Pepsin)	IC50 [3]	solubility at 2 h [2, 7]	IC50 [1]
COc1ccc(C[C@@H]2NC(=O)[C@@H]3CSSC[C@H](NC(=O)CCCCNC(=O)CC[C@@H](C(=O)N[C@@H](CC(N)=O)C(=O)N[C@@H](CC(N)=O)C(N)=O)NC(=O)C(C)(C)NC(=O)[C@H](Cc4ccc5ccccc5c4)NC2=O)C(=O)N[C@@H](CC(N)=O)C(=O)N[C@@H]([C@@H](C)O)C(=O)N[C@@H](Cc2c[nH]c4ccccc24)C(=O)N[C@@H](CCC(N)=O)C(=O)N3)cc1 [compound 1] ([Ava]CNTWQCY(Me)[2Nal][Aib]ENN-NH2; disulfide 2-7; lactam N-11)	72%	74%	58%	100 µg/mL (≈ 60.6 µM)	< 50 µg/mL	< 50 µg/mL	2%	0.72 nM		18.5 nM
C[C@@H](O)[C@@H]1NC(=O)[C@H](CC(N)=O)NC(=O)[C@@H]2CSSC[C@H](NC(=O)[C@H](CCC(N)=O)NC(=O)[C@H](Cc3c[nH]c4ccccc34)NC1=O)C(=O)N[C@@H](Cc1ccc(OCCN)cc1)C(=O)N[C@H](Cc1ccc3ccccc3c1)C(=O)NC(C)(C)C(=O)N[C@H](C(=O)N[C@@H](CC(N)=O)C(=O)N[C@@H](CC(N)=O)C(N)=O)CCC(=O)NCCCCC(=O)N2 [compound 5]	94%	86%	64%	≥ 1110 µg/mL	≥ 1230 µg/mL	≥ 1230 µg/mL	82%	0.61 nM		9.66 nM
C[C@@H](O)[C@@H]1NC(=O)[C@H](CC(N)=O)NC(=O)[C@@H]2CSSC[C@H](NC(=O)[C@H](CCC(N)=O)NC(=O)[C@H](Cc3c[nH]c4ccccc34)NC1=O)C(=O)N[C@@H](Cc1ccc(OCCN(C)C)cc1)C(=O)N[C@H](Cc1ccc3ccccc3c1)C(=O)NC(C)(C)C(=O)N[C@H](C(=O)N[C@@H](CC(N)=O)C(=O)N[C@@H](CC(N)=O)C(N)=O)CCC(=O)NCCCCC(=O)N2 [compound 8]	97%	91%	82%	≥ 990 µg/mL	≥ 1000 µg/mL	≥ 1020 µg/mL	92%	0.24 nM	≥ 1040 µg/mL	5.54 nM
CC(=O)NCCCC[C@@H]1NC(=O)[C@H](Cc2c[nH]c3c(C)cccc23)NC(=O)[C@H]([C@@H](C)O)NC(=O)[C@H](CC(N)=O)NC(=O)[C@@H]2CSSC[C@H](NC1=O)C(=O)N[C@@H](Cc1ccc(OCCN(C)C)cc1)C(=O)N[C@@H](Cc1ccc3ccccc3c1)C(=O)NC1(CCOCC1)C(=O)N[C@H](C(=O)N[C@@H](CC(N)=O)C(=O)N[C@@H](Cc1c[nH]cn1)C(N)=O)CCC(=O)NCCCCC(=O)N2 [compound 21] ([Ava]CNT[Trp(7-Me)]K(Ac)CY(Me2NCH2CH2)[2Nal][Thp]ENH-NH2; disulfide 2-7; lactam N-11)	89%	77%	75%	≥ 1080 µg/mL	≥ 1010 µg/mL	≥ 970 µg/mL	91%	0.31 nM	230 µg/mL (≈ 126 µM)	2.67 nM
CC[C@H](C)[C@H](NC(=O)[C@H](Cc1cccnc1)NC(=O)[C@H](CC(N)=O)NC(=O)[C@@H]1CCC(=O)NCCCCC(=O)N[C@H]2CSSC[C@H](NC(=O)[C@H](CCCCNC(C)=O)NC(=O)[C@H](Cc3c[nH]c4ccccc34)NC(=O)[C@H]([C@@H](C)O)NC(=O)[C@H](CC(N)=O)NC2=O)C(=O)N[C@@H](Cc2ccc(OCCN(C)C)cc2)C(=O)N[C@@H](Cc2ccc3ccccc3c2)C(=O)NC(C)(C)C(=O)N1)C(N)=O [compound 37] ([Ava]CNTWK(Ac)CY(Me2NCH2CH2)[2Nal][Aib]EN[3Pal]I-NH2; disulfide 2-7; lactam N-11)	80%	79%	63%	≥ 890 µg/mL	≥ 940 µg/mL	590 µg/mL (≈ 311 µM)	77%	0.38 nM	90 µg/mL (≈ 47.5 µM)	2 nM
